Series [1] has as its system adult patients (aged 18-64 years) with TRD. In words: CADSS-defined dissociation (CADSS total score >4). Format: in vivo, human. Conditions: for mean individual CADSS scores at recurrence: across follow-up timeframes. An excerpt:
One of skill in the art would readily be able to measure a patient's adverse events from experience and one or more tools utilized to make such assessments. For example, the Clinician-Administered Dissociative States Scale (CADSS) is an technique utilized to measure present-state dissociative symptoms, and, thus, may be utilized to assess treatment-emergent dissociative symptoms. The CADSS consists of 23 subjective items, divided into 3 components: Depersonalization (Items 3 to 7, 20, and 23), derealization (Items 1, 2, 8 to 13, 16 to 19, and 21) and amnesia (Items 14, 15, and 22). Participant's responses are coded on a 5-point scale (0=not at all through to 4=extremely). Thus, higher CADSS values represent a worse dissociative state, whereas lower CADSS values are indicative of a mild dissociative state.
Vital signs, the Clinician-Administered Dissociative States Scale (CADSS), and the Modified Observer's Assessment of Alertness/Sedation (MOAA/S) were assessed at baseline and all treatment sessions (predose, and at 40 minutes, 1 hour [vital signs only unless spontaneously reported by the patient], and 1.5 hours postdose). Routine blood pressure (BP) readings were conducted at each treatment session, with elevations reported as AEs based on the clinician's judgement. The CADSS assessed treatment-emergent dissociative symptoms and consists of 23 questions, each coded on a 5-point scale (0=not at all, 1-mild, 2-moderate, 3=severe, 4-extreme), yielding a total score 0-92.11 A CADSS total score >4 indicated the presence of dissociative symptoms. The MOAA/S assessed treatment-emergent sedation: scores range from (=no response to painful stimulus to 5=readily responds to name spoken in normal tone. Any decrease in MOAA/s from pre-dose (score <5) indicated some degree of sedation. An abnormal elevation in BP was defined as systolic BP ≥180 mmHg and ≥20 mmHg higher than baseline and/or diastolic BP ≥105 mmHg and ≥15 mmHg greater than baseline.
This analysis included any treatment sessions in which patients received ESK (either open-label or blinded). The occurrence and severity of AEs were assessed within the following timeframes: Month 1 (Week 1 and Weeks 2-4), Month 2 (Weeks 5-8), Months 3-6 and Months 6-12. Severity of clinician-reported AEs were scored as 0 (no AE), 1 (mild), 2 (moderate), and 3 (severe). To examine AEs in individual patients over time, only patients who received at least one ESK dose in the following period were included in the analyses of each respective period. Thus, patient data were retained in (i) Week 1 if the patient received ≥1 ESK dose in Weeks 2-4, (ii) Weeks 2-4 if the patient received ≥1 ESK dose in Weeks 5-8, (iii) Weeks 5-8 if the patient received ≥1 ESK dose in Months 3-6, and (iv) Months 3-6 if the patient received ≥1 ESK dose in Months 6-12.

The test system is the same in series [2]. The note with it: cited from earlier work.

The source of these data is patent US20240390295A1, “METHODS FOR TREATING DEPRESSION” (JANSSEN PHARMACEUTICA NV, priority 2020, published 2024).

With `CN[C@]1(c2ccccc2Cl)CCCCC1=O` [esketamine, (S)-2-(2-chlorophenyl)-2-(methylamino)cyclohexanone], the CADSS-defined dissociation is on record as 42.7% in series [1] (Months 3-6, AE once in Week 1); 61.3% in series [1] (Months 3-6, AE twice in Week 1); 19.4% in series [1] (Months 3-6, No AE in Week 1); 38.6% in series [1] (Months 3-6, overall rate for timeframe); 26.8% in series [1] (Months 6-12, AE once in Week 1); 38.7% in series [1] (Months 6-12, AE twice in Week 1). Moreover, the CADSS-defined dissociation in series [1] (Months 6-12, No AE in Week 1) stood at 15.9%; in series [1] (Months 6-12, overall rate for timeframe), 25.9%; in series [1] (Week 1, overall rate for timeframe), 56.6%; in series [1] (Weeks 2-4, AE once in Week 1), 59.1%; in series [1] (Weeks 2-4, AE twice in Week 1), 88.8%; in series [1] (Weeks 2-4, No AE in Week 1) it was 24.8%. The CADSS-defined dissociation in series [1] (Weeks 2-4, overall rate for timeframe) is reported as 53.1%; in series [1] (Weeks 5-8, AE once in Week 1), 32.5%; in series [1] (Weeks 5-8, AE twice in Week 1), 64.6%; in series [1] (Weeks 5-8, No AE in Week 1) it was 15.6%; in series [1] (Weeks 5-8, overall rate for timeframe), 34.9%. In series [1] (human, in vivo, other: intranasal), the “patients with maximum CADSS score >42” value is on record as under 3 patients. In series [1] (human, in vivo, other: nasal spray (intranasal), 1 week), the “measure-based dissociation not reported during Week 1, patients” value was 43%. The “mean individual CADSS scores at recurrence” value in series [1] (maximum CADSS total score <=14) is on record as 1.2-1.4; in series [1] (maximum CADSS total scores 15-24 and 24-42) it was 1.3-2.1. Besides, the “incidence of dissociation, dizziness, nausea, sedation, vertigo” value in series [2] (ESK plus OAD therapy) is at least 5%. In addition, the “incidence relative to placebo plus an OAD” value in series [2] (five most common treatment-emergent events) is at least 2 fold.
